Data taken from ChEMBL document CHEMBL1201862, “PubChem BioAssay data set” (2004).
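Test compounds were applied to cells in 96-well plates for 48 hours at 5 doses. GI50 marks 50% less growth.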 Calls of active or inactive are those of the source. No stated cut-off is given here; in the data, active = GI50 up to about 1.1 µM and inactive = higher.

Assays:
Assay in all cases: inhibition of tumour cell growth, NCI panel, 48 h
A498 = system: A498
OVCAR-5 = system: OVCAR-5
M14 = system: M14
TK-10 = system: TK-10
ACHN = system: ACHN
HT-29 = system: HT-29
RPMI-8226 = system: RPMI-8226
OVCAR-3 = system: OVCAR-3
SF-295 = system: SF-295
SK-MEL-5 = system: SK-MEL-5
SK-OV-3 = system: SK-OV-3
RXF 393 = system: RXF 393
NCI-H460 = system: NCI-H460
CCRF-CEM = system: CCRF-CEM
CAKI-1 = system: CAKI-1
OVCAR-8 = system: OVCAR-8
NCI/ADR-RES = system: NCI/ADR-RES
MDA-N = system: MDA-N
DU-145 = system: DU-145
Hs-578T = system: Hs-578T

| Structure (SMILES) | GI50 (A498) | GI50 (OVCAR-5) | GI50 (M14) | GI50 (TK-10) | GI50 (ACHN) | GI50 (HT-29) | GI50 (RPMI-8226) | GI50 (OVCAR-3) | GI50 (SF-295) | GI50 (SK-MEL-5) | GI50 (SK-OV-3) | GI50 (RXF 393) | GI50 (NCI-H460) | GI50 (CCRF-CEM) | GI50 (CAKI-1) | GI50 (OVCAR-8) | GI50 (NCI/ADR-RES) | GI50 (MDA-N) | GI50 (DU-145) | GI50 (Hs-578T) |
| --- | --- | --- | --- | --- | --- | --- | --- | --- | --- | --- | --- | --- | --- | --- | --- | --- | --- | --- | --- | --- |
| c1cnc2c3[nH]cc4[nH]c5ccccc5c4c-3nc2c1 | > 100 µM (inactive) | > 100 µM (inactive) | > 100 µM (inactive) | > 100 µM (inactive) | 61.4 µM (inactive) | 29.8 µM (inactive) | 27.6 µM (inactive) | 53 µM (inactive) | 47.9 µM (inactive) | > 100 µM (inactive) | > 100 µM (inactive) | 93.3 µM (inactive) | 35.6 µM (inactive) | 24.2 µM (inactive) | 64.1 µM (inactive) | 45.1 µM (inactive) |  |  |  |  |
| Cc1[nH]c2ccccc2c1/C=C/c1c(C)[nH]c2ccccc12 | > 100 µM (inactive) | > 100 µM (inactive) | > 100 µM (inactive) | > 100 µM (inactive) | > 100 µM (inactive) | > 100 µM (inactive) | > 100 µM (inactive) | > 100 µM (inactive) | > 100 µM (inactive) | > 100 µM (inactive) | > 100 µM (inactive) | > 100 µM (inactive) | > 100 µM (inactive) | 20.7 µM (inactive) | > 100 µM (inactive) | > 100 µM (inactive) |  |  |  |  |
| CN1CN(c2ccccc2)C2(CCN(CC(C)(c3ccc(F)cc3)C3OCCCO3)CC2)C1=O (stereo not drawn) |  | 8.69 µM (inactive) | 16.9 µM (inactive) | 15.5 µM (inactive) | 17.7 µM (inactive) | 10.6 µM (inactive) | 10.2 µM (inactive) | 11.5 µM (inactive) | 18.4 µM (inactive) | 15.7 µM (inactive) | 26.4 µM (inactive) | 19.7 µM (inactive) |  | 13 µM (inactive) | 19.7 µM (inactive) | 19.4 µM (inactive) | 12.9 µM (inactive) | 17.3 µM (inactive) | 27.6 µM (inactive) |  |
| Cc1cc(Cl)ccc1NC(=O)C(=O)Cc1nc2ccccc2o1 | > 100 µM (inactive) | > 100 µM (inactive) | > 100 µM (inactive) | > 100 µM (inactive) | > 100 µM (inactive) | > 100 µM (inactive) | > 100 µM (inactive) | > 100 µM (inactive) | > 100 µM (inactive) | > 100 µM (inactive) | > 100 µM (inactive) | > 100 µM (inactive) | > 100 µM (inactive) | > 100 µM (inactive) | > 100 µM (inactive) | > 100 µM (inactive) |  |  |  |  |
| CCOC(=O)[C@]12C(=C(c3ccccc3)O[C@H]3C=CCC[C@H]31)C(=O)C(=O)N2c1ccccc1 | > 100 µM (inactive) | > 100 µM (inactive) | > 100 µM (inactive) | > 100 µM (inactive) | > 100 µM (inactive) | 60 µM (inactive) | 19.8 µM (inactive) | > 100 µM (inactive) | 98.4 µM (inactive) | 93.8 µM (inactive) | > 100 µM (inactive) | > 100 µM (inactive) | > 100 µM (inactive) |  | > 100 µM (inactive) | 65.2 µM (inactive) | 17.1 µM (inactive) |  | > 100 µM (inactive) |  |
| CCN1CN(c2ccccc2)C2(CCN(CCCSc3ccc(F)cc3)CC2)C1=O |  | 5.19 µM (inactive) | 6.75 µM (inactive) | 12.7 µM (inactive) | 4.7 µM (inactive) | 3.36 µM (inactive) | 10.1 µM (inactive) | 13.9 µM (inactive) | 13 µM (inactive) | 2.82 µM (inactive) | 15.8 µM (inactive) | 12.9 µM (inactive) |  | 4.24 µM (inactive) | 12 µM (inactive) | 14.8 µM (inactive) | 12.2 µM (inactive) | 11.7 µM (inactive) | 4.65 µM (inactive) |  |
| Cc1c2c(n(C)c1C)C(=O)C1C(C2=O)C2(C)c3ccccc3C1(C)c1ccccc12 (stereo not drawn) | > 100 µM (inactive) | > 100 µM (inactive) | > 100 µM (inactive) | > 100 µM (inactive) | > 100 µM (inactive) | > 100 µM (inactive) | > 100 µM (inactive) | > 100 µM (inactive) | > 100 µM (inactive) | > 100 µM (inactive) | > 100 µM (inactive) | > 100 µM (inactive) | > 100 µM (inactive) | > 100 µM (inactive) |  | > 100 µM (inactive) | > 100 µM (inactive) |  | > 100 µM (inactive) | > 100 µM (inactive) |
| O=C1C[C@@H](c2ccc(O)cc2)[C@@]2(O1)C(=O)O[C@H]([C@@H](O)CO)[C@@H]2O | > 100 µM (inactive) | > 100 µM (inactive) | > 100 µM (inactive) | > 100 µM (inactive) | > 100 µM (inactive) | > 100 µM (inactive) | > 100 µM (inactive) | > 100 µM (inactive) | > 100 µM (inactive) | > 100 µM (inactive) | > 100 µM (inactive) |  | > 100 µM (inactive) | > 100 µM (inactive) | > 100 µM (inactive) | > 100 µM (inactive) | > 100 µM (inactive) |  | > 100 µM (inactive) | > 100 µM (inactive) |
| Cc1ccc(S(=O)(=O)N/N=C/C(C)C)cc1 | > 100 µM (inactive) | > 100 µM (inactive) | > 100 µM (inactive) | > 100 µM (inactive) | > 100 µM (inactive) | > 100 µM (inactive) | > 100 µM (inactive) | > 100 µM (inactive) | > 100 µM (inactive) | > 100 µM (inactive) | > 100 µM (inactive) | > 100 µM (inactive) | > 100 µM (inactive) | > 100 µM (inactive) | > 100 µM (inactive) | > 100 µM (inactive) |  |  |  |  |
| Nc1nc(S)nc(C(=O)Nc2nccs2)c1-c1ccccc1 | > 100 µM (inactive) | > 100 µM (inactive) | > 100 µM (inactive) | > 100 µM (inactive) | > 100 µM (inactive) | > 100 µM (inactive) | > 100 µM (inactive) | > 100 µM (inactive) | > 100 µM (inactive) | > 100 µM (inactive) | > 100 µM (inactive) | > 100 µM (inactive) | > 100 µM (inactive) | > 100 µM (inactive) | > 100 µM (inactive) | > 100 µM (inactive) |  |  |  |  |
| COc1ccc(C2C3=CONC3CC3CCCCC32)cc1 (stereo not drawn) |  | > 100 µM (inactive) | 54.5 µM (inactive) | > 100 µM (inactive) | 51.5 µM (inactive) | > 100 µM (inactive) | 28.8 µM (inactive) | 39.8 µM (inactive) |  | 50.8 µM (inactive) |  |  | 33.8 µM (inactive) | 42.1 µM (inactive) | > 100 µM (inactive) | 85.7 µM (inactive) |  | > 10 µM (inactive) |  |  |
| CCOC1(OCC)N=C(N)C2(C#N)C3(C(=O)N(C(C)C)N=C3C)C12C#N (stereo not drawn) | > 100 µM (inactive) | > 100 µM (inactive) | > 100 µM (inactive) |  | > 100 µM (inactive) | > 100 µM (inactive) | > 100 µM (inactive) | 44.3 µM (inactive) | > 100 µM (inactive) |  | > 100 µM (inactive) | > 100 µM (inactive) | > 100 µM (inactive) | 38.5 µM (inactive) | > 100 µM (inactive) | > 100 µM (inactive) | > 100 µM (inactive) |  | > 100 µM (inactive) |  |
| CC(=O)Nc1ccc(S(=O)(=O)N/N=C/c2cc(I)cc([N+](=O)[O-])c2O)cc1 | > 100 µM (inactive) | > 100 µM (inactive) | 46.6 µM (inactive) | > 100 µM (inactive) | > 100 µM (inactive) | > 100 µM (inactive) | 36.6 µM (inactive) | > 100 µM (inactive) | > 100 µM (inactive) | 44 µM (inactive) | 85.3 µM (inactive) | 21.5 µM (inactive) | > 100 µM (inactive) | 35.6 µM (inactive) | 81.5 µM (inactive) | > 100 µM (inactive) |  |  |  |  |
| Cc1cccc(-c2nc3c(C(=O)NCCN(C)C)cccc3[nH]2)c1 | 1.54 µM (inactive) | 1.88 µM (inactive) | 1.63 µM (inactive) | 1.37 µM (inactive) | 2.26 µM (inactive) | 0.52 µM (active) | 3.12 µM (inactive) | 1.89 µM (inactive) | 1.1 µM (active) | 1.65 µM (inactive) | 1.49 µM (inactive) | 1.19 µM (inactive) | 0.369 µM (active) | 1.02 µM (active) | 2.23 µM (inactive) | 0.708 µM (active) |  |  |  |  |
| O=C1/C(=N\O)C2CCC1C2 (stereo not drawn) | > 100 µM (inactive) | > 100 µM (inactive) | > 100 µM (inactive) | > 100 µM (inactive) | > 100 µM (inactive) | > 100 µM (inactive) | > 100 µM (inactive) | > 100 µM (inactive) | > 100 µM (inactive) | > 100 µM (inactive) | > 100 µM (inactive) | > 100 µM (inactive) | > 100 µM (inactive) | > 100 µM (inactive) | > 100 µM (inactive) | > 100 µM (inactive) |  |  |  |  |
| Cc1nn(-c2ccccc2)c2nc3c(c(C)nn3-c3ccccc3)c(-c3ccc(C(F)(F)F)cc3)c12 | > 100 µM (inactive) | > 100 µM (inactive) | > 100 µM (inactive) | > 100 µM (inactive) | > 100 µM (inactive) | 52.8 µM (inactive) | > 100 µM (inactive) | > 100 µM (inactive) | > 100 µM (inactive) | > 100 µM (inactive) | > 100 µM (inactive) | > 100 µM (inactive) | > 100 µM (inactive) | > 100 µM (inactive) | > 100 µM (inactive) | > 100 µM (inactive) | > 100 µM (inactive) | > 100 µM (inactive) | > 100 µM (inactive) |  |
